Measurements taken from publication PMC5762315, “Inhibition of polo-like kinase 4 (PLK4): a new therapeutic option for rhabdoid tumors and pediatric medulloblastoma” (Oncotarget, 2017).
pIC50: −log10 of the molar value. Where “and” joins values, the source holds several entries; their conditions need not be identical. Identical values can stand only once.

Columns and labels:
Assay in all cases: biochemical
Type in all cases: biochemical
various kinases [1] = target: various kinases (Homo sapiens, UniProt P35916); settings: FLT4 (VEGFR3)
various kinases [2] = target: various kinases (Homo sapiens, UniProt Q9UM73); settings: ALK
various kinases [3] = target: various kinases (Homo sapiens, UniProt P49759); settings: CLK1
various kinases [4] = target: various kinases (Homo sapiens, UniProt O75116); settings: kinase ROCK2; ZLYTE
various kinases [5] = target: various kinases (Homo sapiens, UniProt P10721); settings: KIT
various kinases [6] = target: various kinases (Homo sapiens, UniProt P07949); settings: kinase RET; ZLYTE
various kinases [7] = target: various kinases (Homo sapiens, UniProt P34947); settings: GRK5
various kinases [8] = target: various kinases (Homo sapiens, UniProt Q9BUB5); settings: MKNK1 (MNK1)
various kinases [9] = target: T1, various kinases (Homo sapiens, UniProt O00141); settings: kinase SGK (SGK1); ZLYTE
T1 sequence (O00141 1-431): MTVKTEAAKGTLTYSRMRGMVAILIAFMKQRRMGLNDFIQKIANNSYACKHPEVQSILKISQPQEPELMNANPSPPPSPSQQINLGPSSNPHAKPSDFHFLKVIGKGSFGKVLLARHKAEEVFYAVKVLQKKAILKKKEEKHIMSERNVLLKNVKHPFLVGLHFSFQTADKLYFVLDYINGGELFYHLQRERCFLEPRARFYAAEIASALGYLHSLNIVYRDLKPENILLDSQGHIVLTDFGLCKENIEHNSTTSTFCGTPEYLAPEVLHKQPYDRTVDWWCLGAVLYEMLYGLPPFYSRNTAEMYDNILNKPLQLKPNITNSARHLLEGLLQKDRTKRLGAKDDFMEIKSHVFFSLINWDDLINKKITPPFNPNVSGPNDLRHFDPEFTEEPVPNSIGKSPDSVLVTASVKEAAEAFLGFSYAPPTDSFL

various kinases [10] = target: various kinases (Homo sapiens, UniProt Q96RG2); settings: PASK
various kinases [11] = target: various kinases (Homo sapiens, UniProt P05771); settings: kinase PRKCB1 (PKC beta I); ZLYTE
various kinases [12] = target: various kinases (Homo sapiens, UniProt O15264); settings: MAPK13 (p38 delta)
various kinases [13] = target: various kinases (Homo sapiens, UniProt Q9HCP0); settings: CSNK1G1 (CK1 gamma 1)
various kinases [14] = target: various kinases (Homo sapiens, UniProt Q13164); settings: MAPK7 (ERK5)
various kinases [15] = target: various kinases (Homo sapiens, UniProt Q16512); settings: kinase PKN1 (PRK1); ZLYTE
various kinases [16] = target: various kinases (Homo sapiens, UniProt P19784); settings: CSNK2A2 (CK2 alpha 2)
various kinases [17] = target: various kinases (Homo sapiens, UniProt Q9Y6E0); settings: kinase STK24 (MST3); ZLYTE
various kinases [18] = target: various kinases (Homo sapiens, UniProt Q08881); settings: ITK
various kinases [19] = target: various kinases (Homo sapiens, UniProt P80192); settings: MAP3K9 (MLK1)
various kinases [20] = target: various kinases (Homo sapiens, UniProt P04049, Y340D/Y341D); settings: kinase RAF1 (cRAF) Y340D Y341D; ZLYTE
various kinases [21] = target: T2, various kinases (Homo sapiens, UniProt Q13188); settings: kinase STK3 (MST2); ZLYTE
T2 sequence (Q13188 1-491): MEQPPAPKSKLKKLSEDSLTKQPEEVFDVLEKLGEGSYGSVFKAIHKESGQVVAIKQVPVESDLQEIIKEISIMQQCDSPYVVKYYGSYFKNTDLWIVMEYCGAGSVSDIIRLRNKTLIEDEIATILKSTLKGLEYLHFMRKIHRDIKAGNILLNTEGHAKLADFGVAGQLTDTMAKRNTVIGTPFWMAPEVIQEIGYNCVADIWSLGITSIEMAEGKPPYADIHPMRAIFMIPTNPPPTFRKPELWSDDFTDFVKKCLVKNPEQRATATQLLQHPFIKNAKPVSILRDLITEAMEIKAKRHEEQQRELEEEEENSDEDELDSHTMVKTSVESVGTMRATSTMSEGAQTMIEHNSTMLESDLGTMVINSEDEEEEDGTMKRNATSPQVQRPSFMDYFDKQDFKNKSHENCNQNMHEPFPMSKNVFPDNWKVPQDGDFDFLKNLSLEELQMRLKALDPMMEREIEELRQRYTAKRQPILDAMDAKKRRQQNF

various kinases [22] = target: various kinases (Homo sapiens, UniProt Q9Y243); settings: AKT3 (PKB gamma)
various kinases [23] = target: various kinases (Homo sapiens, UniProt P51812); settings: kinase RPS6KA3 (RSK2); ZLYTE
various kinases [24] = target: various kinases (Homo sapiens, UniProt P54764); settings: EPHA4
various kinases [25] = target: various kinases (Homo sapiens, UniProt P22607); settings: FGFR3

Sequence of various kinases (Homo sapiens, UniProt O75116) (O75116 whole entry): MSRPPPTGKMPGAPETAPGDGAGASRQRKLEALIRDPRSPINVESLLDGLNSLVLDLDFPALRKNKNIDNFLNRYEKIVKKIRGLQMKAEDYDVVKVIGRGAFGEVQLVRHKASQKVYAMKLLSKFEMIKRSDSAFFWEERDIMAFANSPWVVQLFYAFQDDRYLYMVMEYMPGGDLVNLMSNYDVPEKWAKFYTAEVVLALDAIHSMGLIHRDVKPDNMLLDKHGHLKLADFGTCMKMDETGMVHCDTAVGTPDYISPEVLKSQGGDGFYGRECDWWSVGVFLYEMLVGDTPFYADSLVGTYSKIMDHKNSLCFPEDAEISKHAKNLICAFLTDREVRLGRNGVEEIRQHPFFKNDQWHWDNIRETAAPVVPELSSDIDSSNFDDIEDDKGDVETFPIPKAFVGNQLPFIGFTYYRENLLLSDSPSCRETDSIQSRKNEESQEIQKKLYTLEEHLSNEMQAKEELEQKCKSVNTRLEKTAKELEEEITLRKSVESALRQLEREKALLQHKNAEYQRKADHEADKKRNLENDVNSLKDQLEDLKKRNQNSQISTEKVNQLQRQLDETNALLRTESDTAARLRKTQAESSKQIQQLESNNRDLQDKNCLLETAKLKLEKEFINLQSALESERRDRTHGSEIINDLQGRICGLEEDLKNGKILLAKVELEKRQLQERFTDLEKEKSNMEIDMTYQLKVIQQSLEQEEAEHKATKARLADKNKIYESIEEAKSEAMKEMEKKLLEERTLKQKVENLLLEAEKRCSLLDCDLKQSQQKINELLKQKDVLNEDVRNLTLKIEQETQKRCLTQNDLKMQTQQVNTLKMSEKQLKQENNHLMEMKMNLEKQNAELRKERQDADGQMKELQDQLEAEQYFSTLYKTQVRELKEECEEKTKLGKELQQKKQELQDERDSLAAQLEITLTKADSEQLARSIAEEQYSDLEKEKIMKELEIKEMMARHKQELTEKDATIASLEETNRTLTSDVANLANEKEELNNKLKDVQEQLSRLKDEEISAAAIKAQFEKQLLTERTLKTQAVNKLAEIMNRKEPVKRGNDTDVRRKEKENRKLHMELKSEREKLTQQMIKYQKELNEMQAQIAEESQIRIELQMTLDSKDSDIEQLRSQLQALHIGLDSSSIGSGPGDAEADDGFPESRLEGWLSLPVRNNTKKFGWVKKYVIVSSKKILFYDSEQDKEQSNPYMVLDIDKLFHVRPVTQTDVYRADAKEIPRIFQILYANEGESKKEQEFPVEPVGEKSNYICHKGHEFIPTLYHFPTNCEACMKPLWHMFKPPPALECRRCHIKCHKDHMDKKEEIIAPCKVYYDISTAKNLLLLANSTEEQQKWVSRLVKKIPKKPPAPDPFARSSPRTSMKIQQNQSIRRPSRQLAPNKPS
Sequence of various kinases (Homo sapiens, UniProt P07949) (P07949 29-1114): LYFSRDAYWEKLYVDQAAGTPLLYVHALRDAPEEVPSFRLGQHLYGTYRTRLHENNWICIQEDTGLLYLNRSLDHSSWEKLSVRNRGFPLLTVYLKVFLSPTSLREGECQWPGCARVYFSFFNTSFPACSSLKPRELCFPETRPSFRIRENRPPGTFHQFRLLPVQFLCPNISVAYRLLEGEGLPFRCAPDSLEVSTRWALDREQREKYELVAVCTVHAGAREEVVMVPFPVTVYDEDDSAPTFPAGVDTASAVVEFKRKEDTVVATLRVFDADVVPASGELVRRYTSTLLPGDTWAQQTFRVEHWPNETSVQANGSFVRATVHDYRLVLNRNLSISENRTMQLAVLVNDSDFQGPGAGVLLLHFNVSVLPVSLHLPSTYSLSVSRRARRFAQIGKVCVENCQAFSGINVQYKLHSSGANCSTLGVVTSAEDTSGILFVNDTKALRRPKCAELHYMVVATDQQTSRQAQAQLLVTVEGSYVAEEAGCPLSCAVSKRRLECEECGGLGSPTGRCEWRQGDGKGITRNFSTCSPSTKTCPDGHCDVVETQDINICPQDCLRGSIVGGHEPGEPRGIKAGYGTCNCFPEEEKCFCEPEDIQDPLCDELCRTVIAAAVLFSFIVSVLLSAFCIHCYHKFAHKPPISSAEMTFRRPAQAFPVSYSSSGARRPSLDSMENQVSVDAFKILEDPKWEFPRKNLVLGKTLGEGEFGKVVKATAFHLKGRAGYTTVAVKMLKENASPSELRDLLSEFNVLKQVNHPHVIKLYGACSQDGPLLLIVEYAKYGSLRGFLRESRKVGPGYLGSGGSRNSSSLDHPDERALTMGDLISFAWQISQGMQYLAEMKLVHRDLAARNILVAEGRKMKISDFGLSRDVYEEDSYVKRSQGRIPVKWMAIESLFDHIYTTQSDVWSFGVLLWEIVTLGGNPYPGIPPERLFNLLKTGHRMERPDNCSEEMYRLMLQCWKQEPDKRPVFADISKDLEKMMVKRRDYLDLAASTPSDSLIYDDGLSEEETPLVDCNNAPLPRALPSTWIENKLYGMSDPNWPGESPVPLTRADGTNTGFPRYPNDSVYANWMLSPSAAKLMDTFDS
Sequence of various kinases (Homo sapiens, UniProt P51812) (P51812 whole entry): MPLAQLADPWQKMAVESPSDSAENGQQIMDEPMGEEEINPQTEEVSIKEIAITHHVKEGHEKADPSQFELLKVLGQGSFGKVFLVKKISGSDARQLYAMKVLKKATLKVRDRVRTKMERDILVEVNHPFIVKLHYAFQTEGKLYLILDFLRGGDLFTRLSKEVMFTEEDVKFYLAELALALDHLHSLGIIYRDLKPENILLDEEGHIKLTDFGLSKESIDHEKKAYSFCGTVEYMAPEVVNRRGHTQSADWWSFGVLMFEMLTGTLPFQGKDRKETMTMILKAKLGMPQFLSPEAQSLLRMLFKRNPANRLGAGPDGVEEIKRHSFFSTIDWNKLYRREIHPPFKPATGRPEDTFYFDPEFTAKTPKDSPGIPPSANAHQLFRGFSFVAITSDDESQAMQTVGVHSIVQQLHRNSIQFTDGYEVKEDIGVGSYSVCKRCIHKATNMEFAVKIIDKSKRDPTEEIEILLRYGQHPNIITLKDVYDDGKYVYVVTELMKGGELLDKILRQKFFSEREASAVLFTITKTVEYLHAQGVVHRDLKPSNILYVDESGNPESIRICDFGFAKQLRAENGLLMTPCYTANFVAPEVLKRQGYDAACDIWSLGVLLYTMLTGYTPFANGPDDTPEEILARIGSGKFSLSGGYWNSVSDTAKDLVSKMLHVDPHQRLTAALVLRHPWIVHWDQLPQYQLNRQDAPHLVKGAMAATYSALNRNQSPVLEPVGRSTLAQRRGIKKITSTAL
Sequence of various kinases (Homo sapiens, UniProt P04049, Y340D/Y341D) (P04049 whole entry Y340D/Y341D): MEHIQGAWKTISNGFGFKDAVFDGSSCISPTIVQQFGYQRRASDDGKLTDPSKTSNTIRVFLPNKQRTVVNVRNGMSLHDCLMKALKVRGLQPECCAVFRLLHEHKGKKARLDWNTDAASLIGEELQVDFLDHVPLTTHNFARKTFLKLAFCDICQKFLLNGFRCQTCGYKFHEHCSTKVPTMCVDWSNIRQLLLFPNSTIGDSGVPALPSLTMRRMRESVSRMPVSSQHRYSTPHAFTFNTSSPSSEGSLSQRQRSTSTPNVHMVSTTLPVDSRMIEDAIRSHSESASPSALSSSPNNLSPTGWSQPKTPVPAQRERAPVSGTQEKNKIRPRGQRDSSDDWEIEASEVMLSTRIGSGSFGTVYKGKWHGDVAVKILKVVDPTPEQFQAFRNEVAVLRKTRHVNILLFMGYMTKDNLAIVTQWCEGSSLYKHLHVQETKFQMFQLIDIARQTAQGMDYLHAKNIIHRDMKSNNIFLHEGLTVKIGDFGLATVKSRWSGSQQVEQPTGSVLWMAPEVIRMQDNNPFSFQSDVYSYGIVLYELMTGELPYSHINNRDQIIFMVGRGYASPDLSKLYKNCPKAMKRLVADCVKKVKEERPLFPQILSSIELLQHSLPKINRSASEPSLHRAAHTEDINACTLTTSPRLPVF
Sequence of various kinases (Homo sapiens, UniProt P05771) (P05771 whole entry): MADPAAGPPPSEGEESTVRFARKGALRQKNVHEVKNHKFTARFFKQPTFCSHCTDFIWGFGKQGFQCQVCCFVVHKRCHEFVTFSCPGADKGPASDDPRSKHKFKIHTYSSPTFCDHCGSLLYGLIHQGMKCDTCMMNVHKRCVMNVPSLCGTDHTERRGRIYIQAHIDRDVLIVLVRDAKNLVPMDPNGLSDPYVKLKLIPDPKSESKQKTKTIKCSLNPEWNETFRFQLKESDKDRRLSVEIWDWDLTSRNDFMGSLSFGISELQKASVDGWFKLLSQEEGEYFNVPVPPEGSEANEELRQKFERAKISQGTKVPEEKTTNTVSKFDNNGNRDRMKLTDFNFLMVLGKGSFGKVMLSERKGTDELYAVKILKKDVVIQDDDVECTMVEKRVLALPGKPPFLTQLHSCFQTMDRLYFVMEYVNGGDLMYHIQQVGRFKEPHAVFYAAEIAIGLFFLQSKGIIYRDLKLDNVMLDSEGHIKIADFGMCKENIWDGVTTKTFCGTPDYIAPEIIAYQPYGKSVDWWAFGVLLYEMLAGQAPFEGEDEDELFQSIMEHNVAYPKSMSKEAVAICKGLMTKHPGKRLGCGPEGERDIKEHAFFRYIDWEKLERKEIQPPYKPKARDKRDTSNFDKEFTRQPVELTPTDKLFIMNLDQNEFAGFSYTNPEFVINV
Sequence of various kinases (Homo sapiens, UniProt Q9Y6E0) (Q9Y6E0 whole entry): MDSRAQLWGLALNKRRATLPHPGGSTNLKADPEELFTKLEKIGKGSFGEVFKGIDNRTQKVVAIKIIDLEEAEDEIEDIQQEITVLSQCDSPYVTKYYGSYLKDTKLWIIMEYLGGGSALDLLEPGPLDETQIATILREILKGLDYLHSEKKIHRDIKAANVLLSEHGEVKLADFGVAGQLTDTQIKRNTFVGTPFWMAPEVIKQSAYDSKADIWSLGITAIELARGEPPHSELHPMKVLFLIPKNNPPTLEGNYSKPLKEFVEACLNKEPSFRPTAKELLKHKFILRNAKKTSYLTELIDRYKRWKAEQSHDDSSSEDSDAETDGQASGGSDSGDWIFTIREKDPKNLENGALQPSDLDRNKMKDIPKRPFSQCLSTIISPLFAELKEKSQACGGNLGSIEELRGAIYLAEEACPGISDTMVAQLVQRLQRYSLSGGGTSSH

COc1ccc2c(c1)[C@]1(C[C@H]1c1ccc3c(/C=C/c4ccc(CN5C[C@@H](C)O[C@@H](C)C5)cc4)n[nH]c3c1)C(=O)N2 [CFI-400945]
% Inhibition (various kinases [1]): 6% and 8% | % Inhibition (various kinases [2]): 51% | % Inhibition (various kinases [3]): -1% | % Inhibition Average (various kinases [4]): 1% | % Inhibition Duplicate #1 (various kinases [4]): 1% | % Inhibition Duplicate #2 (various kinases [4]): 1% | % Inhibition (various kinases [5]): 9% and 7% | % Inhibition Average (various kinases [6]): 16% | % Inhibition Duplicate #1 (various kinases [6]): 14% | % Inhibition Duplicate #2 (various kinases [6]): 18% | % Inhibition (various kinases [7]): 5% and 3% | % Inhibition (various kinases [8]): 6% and 1% | % Inhibition Average (various kinases [9]): 8% | % Inhibition Duplicate #1 (various kinases [9]): 9% | % Inhibition Duplicate #2 (various kinases [9]): 7% | % Inhibition (various kinases [10]): 7% and 2% | % Inhibition Average (various kinases [11]): 17% | % Inhibition Duplicate #1 (various kinases [11]): 18% | % Inhibition Duplicate #2 (various kinases [11]): 16% | % Inhibition (various kinases [12]): 1% and 4% | % Inhibition (various kinases [13]): -1% and 3% | % Inhibition (various kinases [14]): -2% and 0% | % Inhibition Average (various kinases [15]): 20% | % Inhibition Duplicate #1 (various kinases [15]): 27% | % Inhibition Duplicate #2 (various kinases [15]): 13% | % Inhibition (various kinases [16]): -1% and 0% | % Inhibition Average (various kinases [17]): 7% | % Inhibition Duplicate #1 (various kinases [17]): 7% | % Inhibition Duplicate #2 (various kinases [17]): 7% | % Inhibition (various kinases [18]): 56% and 53% | pIC50 (various kinases [18]): 6.70 | % Inhibition (various kinases [19]): 9% and 2% | % Inhibition Average (various kinases [20]): 12% | % Inhibition Duplicate #1 (various kinases [20]): 10% | % Inhibition Duplicate #2 (various kinases [20]): 14% | % Inhibition Average (various kinases [21]): 13% | % Inhibition Duplicate #1 (various kinases [21]): 15% | % Inhibition Duplicate #2 (various kinases [21]): 12% | % Inhibition (various kinases [22]): 3% and 4% | % Inhibition Average (various kinases [23]): 2% | % Inhibition Duplicate #1 (various kinases [23]): 1% | % Inhibition Duplicate #2 (various kinases [23]): 2% | % Inhibition (various kinases [24]): 13% and 8% | % Inhibition (various kinases [25]): 11% and 14%
